In PubChem BioAssay (NCI) one finds TGI and GI50 data, which are given here for 14 molecules.

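In this assay, cells in 96-well plates receive the compound at five concentrations for 48 hours. Endpoints are linearly interpolated between the surrounding concentrations. GI50 is the concentration that inhibits growth by half. TGI: concentration producing complete growth inhibition.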

Some test systems named below: KM12 colon; OVCAR-3 ovarian; HOP-62 NSCLC; SF-268 CNS; SN12C renal; SF-539 CNS; BT-549 breast; PC-3 prostate; DU-145 prostate; MCF7 breast.
Assay in all cases: growth of human tumour cells (NCI), 48 h

Consider `N#CC1=C(c2ccccc2)OC2(N)OC(c3ccccc3)=C(C#N)C12C#N` (stereo unspecified), for which the TGI in the assay on KM12 colon, with OVCAR-3 ovarian, in the assay on HOP-62 NSCLC, in the assay with SF-268 CNS, with SN12C renal and in the assay on SF-539 CNS was above 100 µM each time.
For `CCOC(=O)c1cc(C(=O)c2cc(OC)c(OC)c(OC)c2)n2ccc(-c3cc[n+](CC(=O)c4cc(OC)c(OC)c(OC)c4)cc3)cc12`, the GI50 was 1.81 µM in the assay on KM12 colon; 1.98 µM with BT-549 breast; 1.83 µM in the assay with OVCAR-3 ovarian; 2.61 µM with PC-3 prostate; 1.8 µM with DU-145 prostate; 1.87 µM in the assay with SN12C renal. The GI50 in the assay on SF-539 CNS is 1.61 µM. Also, the TGI in the assay with KM12 colon amounted to 3.42 µM; with BT-549 breast, 4.49 µM; with OVCAR-3 ovarian, 3.6 µM; in the assay with PC-3 prostate, 8.12 µM; in the assay with DU-145 prostate, 3.39 µM; with SN12C renal, 3.87 µM. Besides, in the assay on SF-539 CNS, the TGI stood at 3.3 µM.
Turning to `CC(=O)[CH-]C(=O)c1ccccc1.CC(=O)[CH-]C(=O)c1ccccc1.CC(=O)[CH-]C(=O)c1ccccc1.[Br-].[Zr+4]`, the GI50 was above 100 µM in the assay with KM12 colon; 48.1 µM in the assay with OVCAR-3 ovarian; 64 µM in the assay with HOP-62 NSCLC; 56.7 µM with SF-268 CNS; 57.1 µM in the assay on SN12C renal. For the same molecule, the TGI in the assay on KM12 colon, with OVCAR-3 ovarian, with HOP-62 NSCLC, in the assay with SF-268 CNS and with SN12C renal was above 100 µM each time.
As to `FC(F)(F)c1nc(Br)[nH]c1C(F)(F)F`, the TGI was above 100 µM in the assay on KM12 colon; above 100 µM in the assay with OVCAR-3 ovarian; 91.9 µM in the assay on HOP-62 NSCLC; above 100 µM in the assay with SF-268 CNS; above 100 µM in the assay with SN12C renal; above 100 µM with SF-539 CNS.
Take `CCSCCCC(=O)O`: the TGI with KM12 colon, in the assay with BT-549 breast, in the assay with OVCAR-3 ovarian, in the assay on PC-3 prostate, with DU-145 prostate and in the assay on MCF7 breast was above 100 µM throughout. Moreover, the TGI in the assay with HOP-62 NSCLC, with SF-268 CNS and with SN12C renal was above 100 µM each time.
Consider `CC(=O)c1ccc(Oc2c3ccccc3nc3occc23)cc1`, for which the GI50 in the assay on KM12 colon was 9.12 µM; with BT-549 breast, 47.3 µM; with OVCAR-3 ovarian, 2.19 µM; with PC-3 prostate, 9.77 µM; in the assay with DU-145 prostate, 15.6 µM; with MCF7 breast, 4.08 µM. Further, the GI50 in the assay with HOP-62 NSCLC was above 100 µM; in the assay with SF-268 CNS, 7.02 µM; with SF-539 CNS it was 2.53 µM. Also, the TGI with KM12 colon was above 100 µM; in the assay on BT-549 breast it was above 100 µM; with OVCAR-3 ovarian, 6.58 µM; with PC-3 prostate it was above 100 µM; with DU-145 prostate it was above 100 µM; in the assay with MCF7 breast, above 100 µM. Besides, the TGI in the assay on HOP-62 NSCLC is above 100 µM; with SF-268 CNS, above 100 µM; with SF-539 CNS, 8.41 µM.
For `CC[Si](CC)(CC)OC1[C@@H](O[Si](CC)(CC)CC)[C@@H](CNC(=O)NC)O[C@H]1n1cnc2c(NC(=O)Nc3ccccc3)ncnc21` (stereo partly specified), the GI50 was 3.26 µM in the assay with KM12 colon; 3 µM in the assay with BT-549 breast; 2.63 µM in the assay on OVCAR-3 ovarian; 4.41 µM with DU-145 prostate; 3.24 µM in the assay with MCF7 breast; 16 µM with HOP-62 NSCLC. In addition, the GI50 with SF-268 CNS is 4.67 µM; with SN12C renal it was 2.04 µM; in the assay on SF-539 CNS, 7.02 µM. The TGI in the assay with KM12 colon was 9.5 µM; in the assay with BT-549 breast, 12.2 µM; in the assay on OVCAR-3 ovarian, 7.7 µM; with DU-145 prostate it was above 100 µM; in the assay with MCF7 breast it was 14.3 µM; in the assay on HOP-62 NSCLC it was above 100 µM. Moreover, the values for the TGI in the assay on SF-268 CNS, with SN12C renal and in the assay on SF-539 CNS were above 100 µM, 4.92 µM and above 100 µM, respectively.
Regarding `CCOC(=O)CCn1cnc(N)n1`, the TGI in the assay with KM12 colon, with OVCAR-3 ovarian, in the assay on HOP-62 NSCLC, in the assay with SN12C renal and with SF-539 CNS was above 100 µM throughout.
Consider `CNC(=O)NCCN1N=C(C)/C(=C\c2ccccc2)CC1=O`, for which the TGI in the assay on KM12 colon, with OVCAR-3 ovarian, in the assay with HOP-62 NSCLC, in the assay with SF-268 CNS, with SN12C renal and with SF-539 CNS was above 100 µM each time.
Take `CSc1cc(C(C)(C)C)ccc1C(O)c1ccc(C(C)(C)C)cc1SC`: the TGI in the assay with KM12 colon worked out at 25.8 µM; in the assay on OVCAR-3 ovarian, 24.9 µM; in the assay with HOP-62 NSCLC, 27.3 µM; in the assay on SF-268 CNS, 27.1 µM; in the assay with SN12C renal, 25.8 µM; in the assay with SF-539 CNS, 32.3 µM.
On to `CC(C)(C)OC1=C(OC(C)(C)C)C(O)(c2ccc(Cl)cc2)C1=O` (stereo unspecified), for which the TGI in the assay on KM12 colon, in the assay with OVCAR-3 ovarian, with SF-268 CNS, in the assay with SN12C renal and in the assay with SF-539 CNS was above 100 µM each time.
Turning to `O=C(COc1cccc(/C=C2\Oc3ccc4ccccc4c3C2=O)c1)c1ccc([N+](=O)[O-])cc1`, the GI50 in the assay with KM12 colon is 11.9 µM; with BT-549 breast, 17.3 µM; with OVCAR-3 ovarian, 14.9 µM; with DU-145 prostate, 12.1 µM; in the assay with MCF7 breast it was 11.1 µM; in the assay on HOP-62 NSCLC it was 38.5 µM. The GI50 with SF-268 CNS was 13.3 µM; with SN12C renal, 13.9 µM; in the assay with SF-539 CNS it was 14 µM. Besides, the TGI with KM12 colon is 26.2 µM; with BT-549 breast it was 37.6 µM; in the assay on OVCAR-3 ovarian, 28 µM; with DU-145 prostate, 29.3 µM; in the assay with MCF7 breast it was 28.6 µM; with HOP-62 NSCLC, above 100 µM. The TGI in the assay on SF-268 CNS came out at 27.2 µM; in the assay with SN12C renal, 32.5 µM; in the assay on SF-539 CNS, 32.1 µM.
Consider `N#CC(C#N)=C1CCC2C(=C(C#N)C#N)CCC12` (stereo unspecified), for which the TGI with KM12 colon, in the assay on OVCAR-3 ovarian, with HOP-62 NSCLC, with SF-268 CNS, in the assay with SN12C renal and in the assay with SF-539 CNS was above 100 µM each time.
`c1ccc2c(c1)[nH]c1c3ccccc3sc21`: the TGI with KM12 colon, in the assay on OVCAR-3 ovarian, with PC-3 prostate, in the assay on DU-145 prostate, in the assay with MCF7 breast and in the assay with HOP-62 NSCLC was above 100 µM throughout. In addition, the TGI with SF-268 CNS, in the assay on SN12C renal and in the assay on SF-539 CNS was above 100 µM each time.
